Laboratory results as given in patent publication US20130011845A1, “MICRORNA REGULATING THE INSULIN SIGNALING PATHWAY, AND METHOD FOR SCREENING MATERIAL FOR CONTROLLING THE ACTION OF A TARGET THEREOF” (SNU R & DB Foundation, priority 2009, published 2013).
d = 2'-deoxy (DNA); r = 2'-OH (RNA)

Legend:
[1] = system: FOXO; test: FOXO activity in Huh7 cell lines transfected with miR-200 and treated with kinase inhibitors; format: cell-based, human; conditions: Huh7 cell lines transfected with miR-141/200a or miR-200b/c/429, inhibitor at 10 μM
[2] = system: Akt; test: western blotting of p-Akt in FAO cell lines; format: cell-based; conditions: compared to siGFP
[3] = system: FOXO; test: FOXO luciferase reporter (pFK1tk-luc) assay in Hep3B cells; format: cell-based, human
Description: The inventors analyzed the effect of miR-200 miRNAs on the downstream transducers of Akt (see FIGS. 44 to 47). Because Akt represses FOXO activity, the inventors used a luciferase reporter plasmid (pFK1tk-luc) (Biggs, W H et al., 1999, Proc Natl Acad Sci USA 96, 7421-7426) containing eight FOXO-binding sites to determine the level of FOXO activity in cultured cells. Specifically, Hep3B cells were transfected with synthesized siGFP, miR-141, miR-200a, miR-200b, miR-200c, miR-429 or siFOG2 together with pFK1tk-luc vector, and then luciferase activity was measured in the same manner as described Example 8-2. Also, Hep3B cells were transfected with luciferase, or oligonucleotides having complementary sequence to miR-141, miR-200a, miR-200b, miR-200c or miR-429 together with pFK1tk-luc vector. Then, the luciferase activity was measured in the same manner as described above. Further, Hep3B cell lines were transfected with pCK-flag (empty vector) and pCK-FOG2 produced in Example 16-1, and the luciferase activity was measured in the same manner as described above. […] Further, treating the cells with miR-200 inhibitors elevated FOXO activity (see FIG. 46).

[4] = system: FOG2 3′UTR; test: dual-luciferase 3′UTR reporter assay, pAC-FOG2; format: cell-based; conditions: luciferase reporter with FOG2 3′UTR, human Hela cell lines; average of at least two independent experiments
Protocol: (§1) In order to determine whether the target genes identified in Example 7 are in actuality targets of miR-8 and miR-200 family miRNAs, the inventors performed cloning. In other words, […] containing the miRNA target sites. Specifically, in order to obtain cDNAs of respective target genes, from drosophila S2 cell lines or human Hela cell lines, total RNA was extracted by using RNeasy mini kit (QIAGEN, US). 1 μg of total RNA and 1 μl of Oligo-dT (Invitrogen, US) were charged with up to 50 μl of distilled water, and placed into SuperScript First-Strand Synthesis System (Invitrogen, US), followed by RT-PCR reaction. Through the reaction at 65° C. for 6 min, at 4° C. for 5 min, at 42° C. for 60 min, at 95° C. for 5 min, and at 4° C. for 5 min, cDNA was synthesized. By using the cDNA (3˜5 μg) as template, and using a primer pair on respective genes noted in Table 3 and PCR Mastermix (Promega, US), PCR was performed on 3′UTR of ush, Lap1, CG8445, dbo, Lar, Ced-12, CG12333, cbt, FOG2, SEPT7, RIN2, SHC1, HOXB5, LF11, TCF7L1, ERBB21P, ELMO2, BAP1, WDR37, KLHL20, PTPRD, RASSF2 and VAC14 from among the target genes selected in Example 7. Herein, PCRP on atro as a drosophila control gene was also performed. After the reaction was completed, the PCR product on each gene's 3′UTR region was cleaved by each of the following restriction enzymes:
(§2) Then, it was cloned into pAC5.1 luciferase vector (a kind gift of Elisa Izaurralde) cleaved by the same restriction enzymes so as to produce a reporter plasmid having a miR-8 or miR-200 family target sequence in luciferase gene's 3′UTR sequence.
(§3) Reporter plasmids and renilla luciferase expression vectors (Promega, US), as noted in Table 4, and miRNAs of miR-200 family of miR-141, miR-200a (hsa-miR-200a, SEQ ID: 87: 5′-[…]-3′), miR-200b, miR-200c (has-miR-200c, SEQ ID: 88: 5′-[…]-3′) and miR-429, and miR-8 (dme-miR-8, SEQ ID: 89: 5′-[…]-3′) were bought from Samchonri and cotransfected into drosophila S2 cell lines or human Hela cell lines. Then, the activities of luciferase were measured through dual-luciferase assay (Promega, US) by a luminometer (Biorad). Then, 7 gene pairs that respond both to miR-8 and to mir-200 family miRNAs in Drosophila and human cells, respectively were identified (see FIG. 15).

[5] = system: ERBB2IP 3′UTR; test: dual-luciferase 3′UTR reporter assay, pAC-ERBB2IP; format: cell-based; conditions: luciferase reporter with ERBB2IP 3′UTR, human Hela cell lines; average of at least two independent experiments
Protocol: as §1, §2, §3

[6] = system: BAP1 3′UTR; test: dual-luciferase 3′UTR reporter assay, pAC-BAP1; format: cell-based; conditions: luciferase reporter with BAP1 3′UTR, human Hela cell lines; average of at least two independent experiments
Protocol: as §1, §2, §3

[7] = system: KLHL20 3′UTR; test: dual-luciferase 3′UTR reporter assay, pAC-KLHL20; format: cell-based; conditions: luciferase reporter with KLHL20 3′UTR, human Hela cell lines; average of at least two independent experiments
Protocol: as §1, §2, §3

[8] = system: PTPRD 3′UTR; test: dual-luciferase 3′UTR reporter assay, pAC-PTPRD; format: cell-based; conditions: luciferase reporter with PTPRD 3′UTR, human Hela cell lines; average of at least two independent experiments
Protocol: as §1, §2, §3

[9] = system: ELMO2 3′UTR; test: dual-luciferase 3′UTR reporter assay, pAC-ELMO2; format: cell-based; conditions: luciferase reporter with ELMO2 3′UTR, human Hela cell lines; average of at least two independent experiments
Protocol: as §1, §2, §3

[10] = system: WDR37 3′UTR; test: dual-luciferase 3′UTR reporter assay, pAC-WDR37; format: cell-based; conditions: luciferase reporter with WDR37 3′UTR, human Hela cell lines; average of at least two independent experiments
Protocol: as §1, §2, §3

[11] = system: KLF11 3′UTR; test: dual-luciferase 3′UTR reporter assay, pAC-KLF11; format: cell-based; conditions: luciferase reporter with KLF11 3′UTR, human Hela cell lines; average of at least two independent experiments
Protocol: as §1, §2, §3

[12] = system: HOXB5 3′UTR; test: dual-luciferase 3′UTR reporter assay, pAC-HOXB5; format: cell-based; conditions: luciferase reporter with HOXB5 3′UTR, human Hela cell lines; average of at least two independent experiments
Protocol: as §1, §2, §3

[13] = system: TCF7L1 3′UTR; test: dual-luciferase 3′UTR reporter assay, pAC-TCF7L1; format: cell-based; conditions: luciferase reporter with TCF7L1 3′UTR, human Hela cell lines; average of at least two independent experiments
Protocol: as §1, §2, §3

[14] = system: SEPT7 3′UTR; test: dual-luciferase 3′UTR reporter assay, pAC-SEPT7; format: cell-based; conditions: luciferase reporter with SEPT7 3′UTR, human Hela cell lines; average of at least two independent experiments
Protocol: as §1, §2, §3

[15] = system: RIN2 3′UTR; test: dual-luciferase 3′UTR reporter assay, pAC-RIN2; format: cell-based; conditions: luciferase reporter with RIN2 3′UTR, human Hela cell lines; average of at least two independent experiments
Protocol: as §1, §2, §3

[16] = system: SHC1 3′UTR; test: dual-luciferase 3′UTR reporter assay, pAC-SHC1; format: cell-based; conditions: luciferase reporter with SHC1 3′UTR, human Hela cell lines; average of at least two independent experiments
Protocol: as §1, §2, §3

[17] = system: RASSF2 3′UTR; test: dual-luciferase 3′UTR reporter assay, pAC-RASSF2; format: cell-based; conditions: luciferase reporter with RASSF2 3′UTR, human Hela cell lines; average of at least two independent experiments
Protocol: as §1, §2, §3

[18] = system: VAC14 3′UTR; test: dual-luciferase 3′UTR reporter assay, pAC-VAC14; format: cell-based; conditions: luciferase reporter with VAC14 3′UTR, human Hela cell lines; average of at least two independent experiments
Protocol: as §1, §2, §3

[19] = system: Hep3B cells; test: MTT cellular viability assay; format: cell-based, human; conditions: Hep3B cells transfected with 30 nM
Protocol: Because stimulation of PI3K and Akt is known to facilitate cell proliferation and antagonize apoptosis (Pollak, 2008), the inventors measured cellular viability with the MTT (3-(4,5-dimethylthiazol-2-yl)-2,5-diphenyltetrazolium bromide) assay in Hep3B cells. Specifically, Hep3B cells were plated in a 96-well plate, and transfected with 30 nM of synthesized siGFP, miR-141, miR-200a, miR-200b, miR-200c, miR-429 or siFOG2. Then, to the plate, 50 μl of MTT solution (2 mg/ml) (Promega, US) was added per each well, followed by culturing at 37 °C for 1 hour. Then, each well was added with 150 μl of DMSO, and measured by a microplate reader (Bio-rad, US) at a wavelength of 590 nm. Also, Hep3B cells were transfected with 200 nM of luciferase, or 200 nM of oligonucleotides having complementary sequences to miR-141, miR-200a, miR-200b, miR-200c or miR-429, and then were subjected to MTT assay in the same manner as described above.

[20] = biological target: T1, p85α (Homo sapiens, UniProt P27986); test: in vitro binding assay with GST-fused recombinant p85α; conditions: purified GST-fused recombinant p85α protein
T1 construct: GST (N); made in house; host or cells: E. coli BL21
T1 sequence (P27986 whole entry, the tested form may be a part): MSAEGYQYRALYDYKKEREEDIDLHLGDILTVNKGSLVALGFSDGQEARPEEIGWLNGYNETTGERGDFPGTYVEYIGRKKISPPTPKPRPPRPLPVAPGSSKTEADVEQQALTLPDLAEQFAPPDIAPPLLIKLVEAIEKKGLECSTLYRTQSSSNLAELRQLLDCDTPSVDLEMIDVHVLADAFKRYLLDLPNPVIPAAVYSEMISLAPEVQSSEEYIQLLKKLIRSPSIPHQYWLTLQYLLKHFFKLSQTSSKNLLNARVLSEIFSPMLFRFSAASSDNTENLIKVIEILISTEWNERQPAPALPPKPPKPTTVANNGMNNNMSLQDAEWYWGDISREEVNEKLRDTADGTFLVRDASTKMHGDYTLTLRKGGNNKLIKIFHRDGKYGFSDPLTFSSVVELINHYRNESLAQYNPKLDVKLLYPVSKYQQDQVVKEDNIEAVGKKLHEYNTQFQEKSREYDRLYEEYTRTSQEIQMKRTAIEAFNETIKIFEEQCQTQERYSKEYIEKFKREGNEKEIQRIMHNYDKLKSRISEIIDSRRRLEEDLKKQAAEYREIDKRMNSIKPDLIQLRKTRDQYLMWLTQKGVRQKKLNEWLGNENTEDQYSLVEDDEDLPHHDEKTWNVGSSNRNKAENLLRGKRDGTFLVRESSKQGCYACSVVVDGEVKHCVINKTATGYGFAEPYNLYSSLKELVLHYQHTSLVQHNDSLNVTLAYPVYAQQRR
Description: In order to test whether FOG2 directly binds to p85α, the inventors cleaved PCR product on p85α gene (obtained from Example 20-1) by BamHI and EcoRI, and cloned into pGEX5X-1 vector (GE Healthcare, US) cleaved by the same restriction enzymes so as to produce GST-fused recombinant p85α expression vector. The expression vector was transfected into BL21 (Promega, US) through electroporation, and according to a known method, the […] protein was expressed and purified from bacteria (Studier, F. W. et al., 1986, J. Mol. Biol. 189, 113-130), and was used in the following in vitro binding assay, along with purified GST-fused recombinant p85α protein.

[21] = biological target: T2, PI3K (Homo sapiens, UniProt P27986); test: in vitro PI3K assay on immunoprecipitated PI3K complex; format: biochemical; conditions: recombinant protein added to the immunoprecipitated PI3K complex
T2 construct: endogenous in cells; host or cells: Hep3B cell lysate (method paragraph)
T2 sequence (P27986 whole entry): as the sequence (P27986 whole entry, the tested form may be a part) above

O=C1c2ccccc2-c2n[nH]c3cccc1c23 [SB600125]
miR-200-mediated FOXO regulation (FOXO activity) [1]: did not affect miR-200-mediated FOXO regulation

5′-UUAUUCAAGUCCAUCUUCCdTdT-3′ (UUAUUCAAGUCCAUCUUCCTT; siRNA; sugars from the 5' end r19 d2, backbone not given here) [siFOG2]
p-Akt levels [2]: increased p-Akt levels
FOXO activity (activity of luciferase, pFK1tk-luc) [3]: significantly repressed

5′-UAAUACUGCCGGGUAAUGAUGGA-3′ [miR-200c]
Represion fold, FOG2 [4]: 0.32 fold
Represion fold, ERBB2IP [5]: 0.59 fold
Represion fold, BAP1 [6]: 0.74 fold
Represion fold, KLHL20 [7]: 0.69 fold
Represion fold, PTPRD [8]: 0.97 fold
Represion fold, ELMO2 [9]: 0.86 fold
Represion fold, WDR37 [10]: 1.21 fold
Represion fold, KLF11 [11]: 1.07 fold
Represion fold, HOXB5 [12]: 0.87 fold
Represion fold, TCF7L1 [13]: 0.80 fold
Represion fold, SEPT7 [14]: 1.29 fold
Represion fold, RIN2 [15]: 1.30 fold
Represion fold, SHC1 [16]: 1.85 fold
Represion fold, RASSF2 [17]: 0.99 fold
Represion fold, VAC14 [18]: 1.20 fold
FOXO activity (activity of luciferase, pFK1tk-luc) [3]: significantly repressed
cell viability (MTT) [19]: increased cell viability

N#CC(=C(/N)Sc1ccccc1N)/C(C#N)=C(\N)Sc1ccccc1N [U0126]
miR-200-mediated FOXO regulation (FOXO activity) [1]: did not affect miR-200-mediated FOXO regulation

B1: recombinant FOG2 protein: recombinant FOG2 protein containing the middle region of FOG2 (413-789 aa), expressed and purified from bacteria (protein, UniProt Q8WW38 413-789, looked up, fragment)
chain: DLLTRSELPQSQKAMQTKDASSDTELDKCEKKTQLFLTNQRPEIQPTTNKQSFSYTKIKSEPSSPRLASSPVQPNIGPSFPVGPFLSQFSFPQDITMVPQASEILAKMSELVHRRLRHGSSSYPPVIYSPLMPKGATCFECNITFNNLDNYLVHKKHYCSSRWQQMAKSPEFPSVSEKMPEALSPNTGQTSINLLNPAAHSADPENPLLQTSCINSSTVLDLIGPNGKGHDKDFSTQTKKLSTSSNNDDKINGKPVDVKNPSVPLVDGESDPNKTTCEACNITFSRHETYMVHKQYYCATRHDPPLKRSASNKVPAMQRTMRTRKRRKMYEMCLPEQEQRPPLVQQRFLDVANLNNPCTSTQEPTEGLGECYHPRCD
binding to recombinant p85α [20]: specifically bound to recombinant p85α
PI3K activity [21]: significantly inhibited the PI3K activity
